Values after ≈ are worked out from the molar mass of the structure shown.
Key:
[1] = Stability of Compound (I-1) in aqueous solution; assay type: physicochemical
[2] = Example 4 / Table 4: stability of lyophilized Compound (I-1) after being dissolved in vials; assay type: physicochemical; settings: for Solubility: lyophilized powder
Protocol: A 1000 mg quantity of Compound (I-1) was dispersed in distilled water for
injection, and 3 ml of 1N-aqueous sodium hydroxide solution was added to
dissolve the Compound (I-1), followed by addition of water to make up the
total of 50 ml and sterile filtration by the conventional method. The
resulting filtrate was filled in 1 ml portions into vials of a 12 cm^3
capacity, followed by lyophilization by means of the conventional
technique. The lyophilized powder as contained in vials was dissolved in
in Solvent A (which was composed of 50 mg of N-methylglucamine, 0.27 ml of
1N-hydrochloric acid and 2 ml of propylene glycol being admixed with
ethanol to make up the total of 4 ml), Solvent B (which was composed of 50
mg of N-methylglucamine, 0.27 ml of 1N-hydrochloric acid, 1.2 ml of
polyethylene glycol 400 and 1.2 ml of ethanol being admixed with distilled
water for injection to make up the total of 4 ml), Solvent C (which was
composed of 50 mg of N-methylglucamine, 0.27 ml of 1N-hydrochloric acid,
1.2 ml of ethanol and 1.2 ml of propylene glycol being admixed with
distilled water for injection to make up the total of 4 ml and Solvent D
(which was composed of 50 mg of N-methylglucamine, 0.27 ml of
1N-hydrochloric acid and 2.5 ml of polyethylene glycol 400 bing admixed
with distilled water for injection to make up the total of 4 ml),
respectively, to perform inspection for their solubilities as well as to
conduct investigation into appearance, clarity and contents immediately
after dissolution and after storage at 25° C. for 24 hours.

[3] = Example 1 / Table 1: stability of Compound (I-1) in the solution state (ethanol, propylene glycol); settings: for Content: HPLC
Source text: Note, *As measured by use of highperformance liquid chromatography (HPLC)
chromatographic conditions of HPLC:
Carrier; Nucleosil 5 C18 (supplied by GasChro Kogyo K.K. of Japan)
Solvent; Methanol:water:triethylamine (60:40:1, pH 7)
Detection method; UV spectrophotometry at 285 nm

[4] = Solubility of Compound (I-1) in water at different pH; assay type: physicochemical
[5] = Example 2 / Table 2: stability of Compound (I-1) in the solution state (2 mg/ml, mixed solvents); assay type: physicochemical
Protocol: Ethanol, polyethylene glycol 400, propylene glycol and water were mixed at the composition ratios as shown in Table 2 illustrated below, and 2 mg of Compound (I-1) was dissolved in 1 ml each of the resulting solvents, respectively, followed by adjustment to pH 9.0 with 5N-aqueous sodium hydroxide solution. As a control, there were prepared a suspension of 2 mg of Compound (I-1) in 1 ml of water being adjusted to pH 9.0 with 5N-aqueous sodium hydroxide solution and an aqueous solution of 2 mg of Compound (I-1) in 1 ml of 0.01N aqueous sodium hydroxide solution.

[6] = Example 3 / Table 3: stability of Compound (I-1) in the solution state (5 mg/ml, mixed solvents); assay type: physicochemical
Protocol: Ethanol, polyethylene glycol 400, propylene glycol and water were mixed at the composition ratios as shown in Table 3 illustrated below, and 5-mg of Compound (I-1) was dissolved in 1 ml each of the resulting solvents, respectively, followed by adjustment to pH 9.0 with 5N-aqueous sodium hydroxide solution. As a control, there were prepared a suspension of 5 mg of Compound (I-1) in 1 ml of water being adjusted to pH 9.0 with 5N-aqueous sodium hydroxide solution and an aqueous solution of 5 mg of Compound (I-1) in 1 ml of 0.02N aqueous sodium hydroxide solution. […] (A control of the suspension was not subjected to sterile-filtration).
These test specimens as filled into ampoules were investigated for each item of appearance, pH and clarity immediately after preparation and after storage at 25° C.

[7] = Solvent A, after storage at 25° C. for 24 hrs.
[8] = Solvent B, after storage at 25° C. for 24 hrs.
[9] = Solvent C, after storage at 25° C. for 24 hrs.
[10] = Solvent D, after storage at 25° C. for 24 hrs.
[11] = Solvents A-D, after storage for 24 hours
[12] = 2 mg in ethanol 1 ml, after preparation
[13] = 2 mg in ethanol 1 ml, after storage at 25° C./24 hrs.
[14] = 2 mg in propylene glycol 1 ml, after preparation
[15] = 2 mg in propylene glycol 1 ml, after storage at 25° C./24 hrs.
[16] = control: 2 mg in 0.01 N aq. sodium hydroxide 1 ml, after preparation
[17] = control: 2 mg in 0.01 N aq. sodium hydroxide 1 ml, after storage at 25° C./24 hrs.
[18] = 5 mg, PEG-400 0.3 ml, ethanol 0.3 ml, water 0.4 ml, after preparation
[19] = 5 mg, PEG-400 0.4 ml, water 0.6 ml, after preparation
[20] = 5 mg, ethanol 0.3 ml, propylene glycol 0.3 ml, water 0.4 ml, after preparation
[21] = 5 mg, ethanol 0.6 ml, water, after preparation
[22] = control: 5 mg in 0.02 N aq. sodium hydroxide 1 ml, after preparation
[23] = control: 5 mg in 0.02 N aq. sodium hydroxide 1 ml, after storage at 25° C./24 hrs.

- stability in an aqueous solution ([1]; alkaline solution): satisfactorily stable
- appearance of aqueous solution ([1]; neutral to acidic range, short period of time): dark purple
- stability in an aqueous solution ([1]; pH decreased to the neutral to acidic range): less stable
- pH after dissolution ([2]; Solvent A): 8.7
- Appearance ([2]; Solvent A, after dissolution): Colorless
- Clarity ([2]; Solvent A, after dissolution): Clear
- Content ([2]; Solvent A, after dissolution (taken as 100%)): 100%
- Clarity [2, 7]: Clear
- Content [2, 7]: 97.0%
- pH after dissolution ([2]; Solvent B): 9.0
- Appearance ([2]; Solvent B, after dissolution): Colorless
- Clarity ([2]; Solvent B, after dissolution): Clear
- Content ([2]; Solvent B, after dissolution (taken as 100%)): 100%
- Clarity [2, 8]: Clear
- Content [2, 8]: 96.5%
- pH after dissolution ([2]; Solvent C): 9.0
- Appearance ([2]; Solvent C, after dissolution): Colorless
- Clarity ([2]; Solvent C, after dissolution): Clear
- Content ([2]; Solvent C, after dissolution (taken as 100%)): 100%
- Clarity [2, 9]: Clear
- Content [2, 9]: 96.7%
- pH after dissolution ([2]; Solvent D): 9.0
- Appearance ([2]; Solvent D, after dissolution): Colorless
- Clarity ([2]; Solvent D, after dissolution): Clear
- Content ([2]; Solvent D, after dissolution (taken as 100%)): 100%
- Clarity [2, 10]: Clear
- Content [2, 10]: 96.1%
- Appearance ([2]; Solvents A, B, C, D (one spanning entry), after storage at 25° C. for 24 hrs.): Slightly to lightly green-yellow
- change in content [2, 11]: decrease slightly
- change in the clarity [2, 11]: no change
- changes in appearance ([2]; Solvents A-D, immediately after dissolution and after storage for 24 hours): slight changes
- dissolution of lyophilized powder ([2]; all of these solvents (A-D)): dissolved quickly
- solubilities of lyophilized powder ([2]; all of these solvents (A-D)): excellent solubilities
- Solubility ([2]; Solvent A (propylene glycol/ethanol)): Good
- Solubility ([2]; Solvent B (PEG 400/ethanol/water)): Good
- Solubility ([2]; Solvent C (ethanol/propylene glycol/water)): Good
- Solubility ([2]; Solvent D (PEG 400/water)): Good
- Appearance [3, 12]: Colorless
- Clarity [3, 12]: Clear
- Content ([3]; 2 mg in ethanol 1 ml, after preparation (taken as 100.0%)): 100.0%
- Appearance [3, 13]: Yellowish
- Clarity [3, 13]: Clear
- Content [3, 13]: 99.2%
- Appearance [3, 14]: Colorless
- Clarity [3, 14]: Clear
- Appearance [3, 15]: Light red-purple
- Clarity [3, 15]: Clear
- change in appearance ([3]; ethanol and propylene glycol, after storage at 25° C. for 24 hours): slight change
- Solubility ([4]; pH 11, water): 1 mg/mL (≈ 2.71 mM)
- Solubility ([4]; pH 13, water): 33 mg/mL (≈ 89.3 mM)
- Appearance ([5]; 2 mg, PEG-400 0.05 ml, ethanol 0.35 ml, water 0.6 ml, after preparation): Colorless
- pH ([5]; 2 mg, PEG-400 0.05 ml, ethanol 0.35 ml, water 0.6 ml, after preparation (adjusted)): 9.0
- Content ([5]; 2 mg, PEG-400 0.05 ml, ethanol 0.35 ml, water 0.6 ml, after preparation (taken as 100.0%)): 100.0%
- Content ([5]; 2 mg, PEG-400 0.05 ml, ethanol 0.35 ml, water 0.6 ml, after storage at 25° C./24 hrs.): 98.0%
- Appearance ([5]; 2 mg, PEG-400 0.05 ml, propylene glycol 0.35 ml, water 0.6 ml, after preparation): Colorless
- pH ([5]; 2 mg, PEG-400 0.05 ml, propylene glycol 0.35 ml, water 0.6 ml, after preparation (adjusted)): 9.0
- Content ([5]; 2 mg, PEG-400 0.05 ml, propylene glycol 0.35 ml, water 0.6 ml, after preparation (taken as 100.0%)): 100.0%
- Content ([5]; 2 mg, PEG-400 0.05 ml, propylene glycol 0.35 ml, water 0.6 ml, after storage at 25° C./24 hrs.): 94.4%
- Appearance ([5]; 2 mg, PEG-400 0.4 ml, water 0.6 ml, after preparation): Colorless
- pH ([5]; 2 mg, PEG-400 0.4 ml, water 0.6 ml, after preparation (adjusted)): 9.0
- Content ([5]; 2 mg, PEG-400 0.4 ml, water 0.6 ml, after preparation (taken as 100.0%)): 100.0%
- Content ([5]; 2 mg, PEG-400 0.4 ml, water 0.6 ml, after storage at 25° C./24 hrs.): 91.8%
- Appearance ([5]; 2 mg, ethanol 0.5 ml, propylene glycol 0.5 ml, after preparation): Colorless
- pH ([5]; 2 mg, ethanol 0.5 ml, propylene glycol 0.5 ml, after preparation (adjusted)): 9.0
- Content ([5]; 2 mg, ethanol 0.5 ml, propylene glycol 0.5 ml, after preparation (taken as 100.0%)): 100.0%
- Content ([5]; 2 mg, ethanol 0.5 ml, propylene glycol 0.5 ml, after storage at 25° C./24 hrs.): 98.0%
- dissolution of control specimens ([5]; control in water adjusted to same pH as other test specimens, 2 mg/ml): failed to allow adequate dissolution
- pH needed to secure dissolution of control specimens ([5]; control, 2 mg/ml): not less than 11
- Appearance [5, 16]: Colorless
- pH [5, 16]: 11.4
- Content ([5]; control: 2 mg in 0.01 N aq. sodium hydroxide 1 ml, after preparation (taken as 100.0%)): 100.0%
- Appearance [5, 17]: Colorless
- Content [5, 17]: 92.5%
- pH ([5]; control: 2 mg in water 1 ml, after preparation (adjusted)): 9.1
- Appearance [6, 18]: Colorless
- Clarity [6, 18]: Clear
- pH ([6]; 5 mg, PEG-400 0.3 ml, ethanol 0.3 ml, water 0.4 ml, after preparation (adjusted)): 9.0
- Clarity ([6]; 5 mg, PEG-400 0.3 ml, ethanol 0.3 ml, water 0.4 ml, after storage at 25° C./24 hrs.): Clear
- Appearance [6, 19]: Colorless
- Clarity [6, 19]: Clear
- pH ([6]; 5 mg, PEG-400 0.4 ml, water 0.6 ml, after preparation (adjusted)): 9.0
- Clarity ([6]; 5 mg, PEG-400 0.4 ml, water 0.6 ml, after storage at 25° C./24 hrs.): Clear
- Appearance [6, 20]: Colorless
- Clarity [6, 20]: Clear
- pH ([6]; 5 mg, ethanol 0.3 ml, propylene glycol 0.3 ml, water 0.4 ml, after preparation (adjusted)): 9.0
- Clarity ([6]; 5 mg, ethanol 0.3 ml, propylene glycol 0.3 ml, water 0.4 ml, after storage at 25° C./24 hrs.): Clear
- Appearance [6, 21]: Colorless
- Clarity [6, 21]: Clear
- pH ([6]; 5 mg, ethanol 0.6 ml, water, after preparation (adjusted)): 9.0
- Clarity ([6]; 5 mg, ethanol 0.6 ml, water, after storage at 25° C./24 hrs.): Clear
- dissolution of control specimens ([6]; control in water adjusted to same pH as other test specimens, 5 mg/ml): failed to allow adequate dissolution
- pH needed to secure dissolution of control specimens ([6]; control, 5 mg/ml): not less than 11
- Appearance [6, 22]: Colorless
- Clarity [6, 22]: Clear
- pH [6, 22]: 11.6
- Appearance [6, 23]: Colorless
- Clarity [6, 23]: Clear
- pH ([6]; control: 5 mg in water 1 ml, after preparation (adjusted)): 8.9
SMILES: Cc1c(OCC(F)(F)F)ccnc1C[S+]([O-])c1nc2ccccc2[nH]1 (centres unmarked) [Compound (I-1), 2-(3-methyl-4-trifluoroethoxy-2-pyridyl)methylsulfinylbenzimidazole]
